Laboratory results as given in US20060223996A1, “IL-12 modulatory compounds” (Synta Pharmaceuticals Corp., priority 2004, published 2006).

test system: IL-12; assay: Human in vitro assay: inhibition of IL-12 production in IFNγ/LPS- or IFNγ/SAC-stimulated human PBMC or THP-1 cells (ELISA); assay type: cell-based; settings: read-out: IC50 Range (representative in vitro IC50 data)
Excerpt: The biological activities of a heterocyclic compound can be evaluated by a number of cell-based assays. One of such assays can be conducted using cells from human peripheral blood mononuclear cells (PBMC) or human monocytic cell line (THP-1). The cells are stimulated with a combination of human interferon-γ (IFNγ) and lipopolysaccharide or a combination of IFNγ and Staphylococcus aureus Cowan I in the presence of a test compound. The level of inhibition of IL-12 production can be measured by determining the amount of p70 by using a sandwich ELISA assay with anti-human IL-12 antibodies. IC50 of the test compound can then be determined. Specifically, PBMC or THP-1 cells are incubated with the test compound. Cell viability was assessed using the bioreduction of MTS [3-(4,5-dimethylthiazol-2-yl)-5-(3-carboxymethoxyphenyl)-2-(4-sulfophenyl)-2H-tetrazolium](Promega, Madison, Wis.).
Human In Vitro Assay. Human PBMC were isolated by centrifugation using Ficoll-Paque (Pharmacia Biotech, Uppsala, Sweden) and prepared in RPMI medium supplemented with 10% fetal calf serum (FCS), 100 U/mL penicillin, and 100 μg/mL streptomycin. PBMC were plated in wells of a 96-well plate at a concentration of 5×10^5 cells/well, and primed by adding IFNγ (30 U/mL) for 22 h and stimulated by adding LPS (1 μg/mL), or by adding IFNγ (100 U/mL) and then stimulated by adding SAC (0.01%). A test pyrimidine compound was dissolved in DMSO, and added to wells of the 96-well plate. The final DMSO concentration was adjusted to 0.25% in all cultures, including the compound-free control. Human THP-1 cells were plated in wells, primed by adding IFNγ (100 U/mL) for 22 h and stimulated by adding SAC (0.025%) in the presence of different concentrations of the pyrimidine compound. Cell-free supernatants were taken 18 h later for measurement of cytokines. Cell viability was assessed using the bioreduction of MTS. Cell survival was estimated by determining the ratio of the absorbance in compound-treated groups versus compound-free control.
The supernatant was assayed for the amount of IL-12p40, IL-12p70, or IL-10 by using a sandwich ELISA with anti-human antibodies, i.e., a Human IL-12 p40 ELISA kit from R&D Systems (Berkeley, Calif.), and a Human IL-12 p70 or IL-10 ELISA kit from Endogen (Cambridge, Mass.). Assays were based on the manufacturer's instructions.
The biological activities of pyrimidine compounds were tested on human PBMC or THP-1 cells.

IC50 [nM] | Compound
< 1000 | O=C(Nc1ccc2cc[nH]c2c1)c1cc(OCCN2CCOCC2)nc(N2CCOCC2)n1 [Compound 275, 2-Morpholin-4-yl-6-(2-morpholin-4-yl-ethoxy)-pyrimidine-4-carboxylic acid (1H-indol-6-yl)-amide]
< 1000 | CONc1cc(C(=O)Nc2ccc3[nH]c(C)c(C)c3c2)nc(N2CCOCC2)c1 [Compound 161, 4-Methoxyamino-6-morpholin-4-yl-pyridine-2-carboxylic acid (2,3-dimethyl-1H-indol-5-yl)-amide]
≥ 1000 | COCCN(C)c1cc(C(=O)Nc2cc(C)on2)nc(N2CCOCC2)n1 [Compound 237, 6-[(2-Methoxy-ethyl)-methyl-amino]-2-morpholin-4-yl-pyrimidine-4-carboxylic acid (5-methyl-isoxazol-3-yl)-amide]
< 1000 | Cc1[nH]c2ccc(NC(=O)c3cc(O)nc(N4CCOCC4)n3)cc2c1C [Compound 254, N-(2,3-dimethyl-1H-indol-5-yl)-6-hydroxy-2-morpholinopyrimidine-4-carboxamide]
≥ 1000 | NC(=O)c1cccc(NC(=O)c2cc(OCCN3CCOC3=O)nc(N3CCOCC3)n2)c1 [Compound 43, 2-Morpholin-4-yl-6-[2-(2-oxo-oxazolidin-3-yl)-ethoxy]-pyrimidine-4-carboxylic acid (3-carbamoyl-phenyl)-amide]
< 1000 | Cc1ccc(NC(=O)c2cc(N3CCOCC3)nc(N3CCOCC3)n2)cc1C [Compound 51, 2,6-Di-morpholin-4-yl-pyrimidine-4-carboxylic acid (3,4-dimethyl-phenyl)-amide]
< 1000 | CN(CCO)c1cc(C(=O)Nc2cccc(-n3cccc3)c2)nc(N2CCOCC2)n1 [Compound 304, 6-[(2-Hydroxy-ethyl)-methyl-amino]-2-morpholin-4-yl-pyrimidine-4-carboxylic acid (3-pyrrol-1-yl-phenyl)-amide]
≥ 1000 | Cc1nccc(-c2cccc(NC(=O)c3cc(OCCN4CCOCC4)nc(N4CCOCC4)n3)c2)n1 [Compound 170, 2-Morpholin-4-yl-6-(2-morpholin-4-yl-ethoxy)-pyrimidine-4-carboxylic acid [3-(2-methyl-pyrimidin-4-yl)-phenyl]-amide]
< 1000 | Cc1[nH]c2ccc(NC(=O)c3cc(N4CCOCC4)nc(N4C[C@@H](C)O[C@@H](C)C4)n3)cc2c1C [Compound 281, 2-(2,6-Dimethyl-morpholin-4-yl)-6-morpholin-4-yl-pyrimidine-4-carboxylic acid (2,3-dimethyl-1H-indol-5-yl)-amide]
< 1000 | CCc1c(C)[nH]c2ccc(NC(=O)c3cc(N4CCC(O)CC4)nc(N4CCOCC4)n3)cc12 [Compound 177, 6-(4-Hydroxy-piperidin-1-yl)-2-morpholin-4-yl-pyrimidine-4-carboxylic acid (3-ethyl-2-methyl-1H-indol-5-yl)-amide]
≥ 1000 | CN(C)C(=O)c1cccc(NC(=O)c2cc(OCCN3CCOCC3)nc(N3CCOCC3)n2)c1 [Compound 53, 2-Morpholin-4-yl-6-(2-morpholin-4-yl-ethoxy)-pyrimidine-4-carboxylic acid (3-dimethylcarbamoyl-phenyl)-amide]
≥ 1000 | COCCN(C)c1cc(C(=O)Nc2cccc(-c3nc(C)no3)c2)nc(N2CCOCC2)n1 [Compound 207, 6-((2-methoxyethyl)(methyl)amino)-N-(3-(3-methyl-1,2,4-oxadiazol-5-yl)phenyl)-2-morpholinopyrimidine-4-carboxamide]
< 1000 | O=C(Nc1cccc(Cl)c1)Nc1cc(OCCN2CCOCC2)nc(N2CCOCC2)n1 [Compound 126, 1-(3-Chloro-phenyl)-3-[2-morpholin-4-yl-6-(2-morpholin-4-yl-ethoxy)-pyrimidin-4-yl]-urea]
≥ 1000 | Cc1cccc(NNC(=O)c2cc(OCCN3CCOCC3)nc(N3CCOCC3)c2)c1 [Compound 82, 2-Morpholin-4-yl-6-(2-morpholin-4-yl-ethoxy)-isonicotinic acid N′-m-tolyl-hydrazide]
< 1000 | Cc1[nH]c2ccc(NC(=O)c3cc(OCCN4CCNCC4)nc(N4CCOCC4)n3)cc2c1C [Compound 246, N-(2,3-dimethyl-1H-indol-5-yl)-2-morpholino-6-(2-(piperazin-1-yl)ethoxy)pyrimidine-4-carboxamide]
< 1000 | Cc1cc(NC(=O)Nc2ccc3[nH]c(C)c(C)c3c2)nc(N2CCOCC2)n1 [Compound 263, 1-(2,3-dimethyl-1H-indol-5-yl)-3-(6-methyl-2-morpholinopyrimidin-4-yl)urea]
< 1000 | CCc1cccc(NC(=O)Nc2cc(OCCN3CCOCC3)nc(N3CCOCC3)n2)c1 [Compound 131, 1-(3-Ethyl-phenyl)-3-[2-morpholin-4-yl-6-(2-morpholin-4-yl-ethoxy)-pyrimidin-4-yl]-urea]
≥ 1000 | O=C(Oc1ccc2[nH]ccc2c1)c1cc(OCCc2ccccn2)nc(N2CCOCC2)n1 [Compound 72, 2-Morpholin-4-yl-6-(2-pyridin-2-yl-ethoxy)-pyrimidine-4-carboxylic acid 1H-indol-5-yl ester]
< 1000 | COC(=O)CNc1cc(C(=O)Nc2ccc3[nH]c(C)c(C)c3c2)nc(N2CCOCC2)n1 [Compound 97, [6-(2,3-Dimethyl-1H-indol-5-ylcarbamoyl)-2-morpholin-4-yl-pyrimidin-4-ylamino]-acetic acid methyl ester]
≥ 1000 | COCCN(C)c1cc(C(=O)Nc2ccc(N3CCOCC3)c(C(N)=O)c2)nc(N2CCOCC2)n1 [Compound 234, 6-[(2-Methoxy-ethyl)-methyl-amino]-2-morpholin-4-yl-pyrimidine-4-carboxylic acid (3-carbamoyl-4-morpholin-4-yl-phenyl)-amide]
< 1000 | Nc1cccc(NC(=O)Nc2cc(OCCN3CCOCC3)nc(N3CCOCC3)n2)c1 [Compound 324, 1-(3-Amino-phenyl)-3-[2-morpholin-4-yl-6-(2-morpholin-4-yl-ethoxy)-pyrimidin-4-yl]-urea]
≥ 1000 | CC(=O)Nc1ccccc1NC(=O)c1cc(OCCN2CCOCC2)nc(N2CCOCC2)n1 [Compound 49, 2-Morpholin-4-yl-6-(2-morpholin-4-yl-ethoxy)-pyrimidine-4-carboxylic acid (2-acetylamino-phenyl)-amide]
≥ 1000 | O=C(Nc1ccnc(Cl)c1)c1cc(OCCN2CCOCC2)nc(N2CCOCC2)n1 [Compound 149, 2-Morpholin-4-yl-6-(2-morpholin-4-yl-ethoxy)-pyrimidine-4-carboxylic acid (2-chloro-pyridin-4-yl)-amide]
≥ 1000 | Cc1cccc(NC(=O)Nc2cc(OCC(C)(C)O)nc(N3CCOCC3)n2)c1 [Compound 11, 1-[6-(2-Hydroxy-2-methyl-propoxy)-2-morpholin-4-yl-pyrimidin-4-yl]-3-m-tolyl-urea]
< 1000 | Cc1[nH]c2ccc(NC(=O)c3cc(NCC(=O)N4CCC(O)CC4)nc(N4CCOCC4)n3)cc2c1C [Compound 100, 6-[2-(4-Hydroxy-piperidin-1-yl)-2-oxo-ethylamino]-2-morpholin-4-yl-pyrimidine-4-carboxylic acid (2,3-dimethyl-1H-indol-5-yl)-amide]
≥ 1000 | O=C(Nc1cccc([N+](=O)[O-])c1)Nc1cc(OCCN2CCOCC2)nc(N2CCOCC2)n1 [Compound 128, 1-[2-Morpholin-4-yl-6-(2-morpholin-4-yl-ethoxy)-pyrimidin-4-yl]-3-(3-nitro-phenyl)-urea]
≥ 1000 | CN1C(=O)c2ccc(NC(=O)c3cc(OCCN4CCOCC4)nc(N4CCOCC4)n3)cc2C1=O [Compound 274, 2-Morpholin-4-yl-6-(2-morpholin-4-yl-ethoxy)-pyrimidine-4-carboxylic acid (2-methyl-1,3-dioxo-2,3-dihydro-1H-isoindol-5-yl)-amide]
≥ 1000 | O=C1COc2ccc(NC(=O)c3cc(OCCN4CCOCC4)nc(N4CCOCC4)n3)cc2N1 [Compound 199, 2-morpholino-6-(2-morpholinoethoxy)-N-(3-oxo-3,4-dihydro-2H-benzo[b][1,4]oxazin-6-yl)pyrimidine-4-carboxamide]
< 1000 | Cc1[nH]c2ccc(NC(=O)c3cc(N4CCC5(CC4)OCCO5)nc(N4CCOCC4)n3)cc2c1C [Compound 172, 6-(1,4-Dioxa-8-aza-spiro[4.5]dec-8-yl)-2-morpholin-4-yl-pyrimidine-4-carboxylic acid (2,3-dimethyl-1H-indol-5-yl)-amide]
≥ 1000 | Cc1[nH]c2c(NC(=O)c3cc(OCCN4CCOCC4)nc(N4CCOCC4)n3)cccc2c1C [Compound 41, 2-Morpholin-4-yl-6-(2-morpholin-4-yl-ethoxy)-pyrimidine-4-carboxylic acid (2,3-dimethyl-1H-indol-7-yl)-amide]
